Assay results reported in patent US10472341B2, “Bicyclic tetrahydrothiazepine derivatives useful for the treatment of neoplastic and/or infectious diseases” (APEIRON BIOLOGICS AG, priority 2015, dated 2019).
Like-named read-outs stand apart in the source and are kept apart here.

Key:
[1] = system: aCD3/aCD28-stimulated human PBMCs; test: Cytokine production in aCD3/aCD28 stimulated human PBMCs; type: cell-based; conditions: PBMC, 18 h
Protocol: In order to determine the immune modulatory effect of compounds of compounds of the present invention in human PBMCs, compounds were assessed in the following assay set-up:
Buffy coats were obtained from a local hospital, diluted 3 fold with PBS and layered onto an isotonic Ficoll separating solution d=1.077 g/mL in 50 mL centrifuge tubes. The tubes were centrifuged at 914 g for 25 min at room temperature with the brakes off. The PBMC layer was removed and washed twice with ice-cold PBS. Erythrocytes were lysed by addition of ddH2O and cells were resuspended in X-Vivo15 (Lonza).
1e6 cells/mL were stimulated with soluble anti CD3/CD28 antibodies (1 μg/mL both, clones OKT3 and 28.2) in the presence of described compounds. Cells were incubated for 18 h at 37° C., 5% CO2. Assay plates were centrifuged at 400 g for 5 min and supernatants harvested. Cytokine concentration in tissue culture supernatants were determined with MSD or HTRF kits (MSD and Cisbio), according to manufacturer's instructions.

[2] = system: aCD3/aCD28-stimulated human CD4+-T-cells; test: IL-2 production and activation markers in aCD3/aCD28 stimulated isolated human CD4+-T-cells; type: cell-based; conditions: IL-2 production at 3 μM compound
Protocol: • Buffy coat content was transferred to sterile plastic bottle and filled up to 480 ml with PBS, and distributed equally to 16×50 ml tubes (30 ml/tube) • Underlayed with ˜11 ml Lymphoprep and centrifuged 20 min (2200 rpm) • The interphase containing lymphocytes was taken off with transfer pipette, cells were washed twice with PBS and pooled to one tube to determine cell count (Coulter Diff ACT) Isolation of Immune Cell Subfractions from PBMCs by MACS • PBMCs were resuspended in MACS buffer (80 μl MACS-buffer/10^7 cells) and cells were isolated with Auto-MACS device using respective kits following manufacturer's recommendations TCR Stimulation and Measurement of T Cell Activation
Isolated T cells were plated in Xvivo medium at 1.5*10 ^5 cells per in 96 well culture plates and TCR-stimulated with anti-CD3/28 mAbs in the presence of compound as indicated. Cytokine production was determined at 24 h or 48 h following TCR stimulation in cell culture supernatants using commercially available ELISA kits (BD and eBioscience) as recommended by the manufacturer. T cell proliferation and CD25 expression (CD25-PC5 reagent purchased from Beckman Coulter) was determined by flow cytometry (Beckman-Coulter FC500) and analysed with Kaluza Software. For measurement of CD69 expression, isolated CD4 and CD8 T cells were plated in Xvivo medium at […] per in 96 well culture plates and TCR-stimulated with anti-CD3/28 mAbs in the presence of compound. CD69 expression was determined at 24 h following TCR stimulation by flow cytometry (CD4eF450, CD8APCeF780 and CD69-PC7 reagent purchased from eBioscience) and analysed with Kaluza Software.
Buffy coats were obtained from Austrian Red Cross, diluted 3 fold with PBS and layered onto an isotonic Ficoll separating solution d=1.077 g/m in 50 ml centrifuge tubes. The tubes were centrifuged at 914 g for 25 min at room temperature with the brakes off. The PBMC layer was removed and washed twice with ice-cold PBS. CD4 T cells were isolated using CD4 microbeads (Milteny) and the AutoMACS device following manufacturer's instructions.
Compound examples of the present invention were classified according to the following activity criteria and are listed in Table 4a: • Activity Class A: IL-2 production at 3 μM compound concentration >10 ng/mL • Activity Class B: IL-2 production at 3 μM compound concentration between 2-10 ng/mL • Activity Class C: IL-2 production at 3 μM compound concentration between 2-fold increase as compared to mean IL-2 production of stimulated cells in the absence of compounds and <2 ng/mL

[3] = enhancement of IFN-γ production, read-out: Activity Class IFN-γ
[4] = enhancement of IL-2 production, read-out: Activity Class IL-2

SMILES: CCCCNC(=O)c1ccc2c(c1)N(Cc1ccc(C(C)(C)C)cc1)C(=O)[C@@H](N)CS2.Cl [Example 2, (3R)-3-amino-N-butyl-5-[(4-tert-butylphenyl)methyl]-4-oxo-2,3,4,5-tetrahydro-1,5-benzothiazepine-7-carboxamide hydrochloride]
- EC50 [1, 3]: < 1.58 µM
- EC50 [1, 4]: 1.58 to 5.01 µM
- Activity Class CD4+ [2]: B (IL-2 production at 3 μM compound concentration between 2-10 ng/mL)

SMILES: CCCCNC(=O)c1ccc2c(c1)N(Cc1ccc(OC(F)(F)F)cc1)C(=O)[C@@H](N)CS2.Cl [Example 3, (3R)-3-amino-N-butyl-4-oxo-5-{[4-(trifluoromethoxy)phenyl]methyl}-2,3,4,5-tetrahydro-1,5-benzothiazepine-7-carboxamide hydrochloride]
- EC50 [1, 3]: 1.58 to 5.01 µM
- EC50 [1, 4]: 1.58 to 5.01 µM
- Activity Class CD4+ [2]: B (IL-2 production at 3 μM compound concentration between 2-10 ng/mL)

SMILES: CC(C)NC(=O)c1ccc2c(c1)N(Cc1ccc(C(C)(C)C)cc1)C(=O)[C@@H](N)CS2.Cl [Example 4, (3R)-3-amino-5-[(4-tert-butylphenyl)methyl]-4-oxo-N-(propan-2-yl)-2,3,4,5-tetrahydro-1,5-benzothiazepine-7-carboxamide hydrochloride]
- EC50 [1, 3]: > 5.01 µM
- EC50 [1, 4]: 1.58 to 5.01 µM
- Activity Class CD4+ [2]: C (IL-2 production at 3 μM compound concentration between 2-fold increase as compared to mean IL-2 production of stimulated cells in the absence of compounds and <2 ng/mL)

SMILES: CCCCNC(=O)c1ccc2c(c1)N(Cc1ccc(C(N)=O)cc1)C(=O)[C@@H](N)CS2.Cl [Example 47, (3R)-3-amino-N-butyl-5-[(4-carbamoylphenyl)methyl]-4-oxo-2,3,4,5-tetrahydro-1,5-benzothiazepine-7-carboxamide hydrochloride]
- Activity Class CD4+ [2]: C (IL-2 production at 3 μM compound concentration between 2-fold increase as compared to mean IL-2 production of stimulated cells in the absence of compounds and <2 ng/mL)

SMILES: C[C@H](NC(=O)c1ccc2c(c1)N(Cc1ccc(Cl)cc1)C(=O)[C@@H](N)CS2)c1ccc(F)cc1.Cl [Example 49, (3R)-3-amino-5-[(4-chlorophenyl)methyl]-N-[(1S)-1-(4-fluorophenyl)ethyl]-4-oxo-2,3,4,5-tetrahydro-1,5-benzothiazepine-7-carboxamide hydrochloride]
- Activity Class CD4+ [2]: C (IL-2 production at 3 μM compound concentration between 2-fold increase as compared to mean IL-2 production of stimulated cells in the absence of compounds and <2 ng/mL)

SMILES: Cl.N[C@H]1CSc2cc(F)c(C(=O)NNc3ccc(F)cc3)cc2N(Cc2ccc(Cl)cc2)C1=O [Example 52, (3R)-3-amino-5-[(4-chlorophenyl)methyl]-8-fluoro-N′-(4-fluorophenyl)-4-oxo-2,3,4,5-tetrahydro-1,5-benzothiazepine-7-carbohydrazide hydrochloride]
- Activity Class CD4+ [2]: C (IL-2 production at 3 μM compound concentration between 2-fold increase as compared to mean IL-2 production of stimulated cells in the absence of compounds and <2 ng/mL)

SMILES: CC(C)CONC(=O)c1ccc2c(c1)N(Cc1ccc(Cl)cc1)C(=O)[C@@H](N)CS2.Cl [Example 62, (3R)-3-amino-5-[(4-chlorophenyl)methyl]-N-(2-methylpropoxy)-4-oxo-2,3,4,5-tetrahydro-1,5-benzothiazepine-7-carboxamide hydrochloride]
- Activity Class CD4+ [2]: C (IL-2 production at 3 μM compound concentration between 2-fold increase as compared to mean IL-2 production of stimulated cells in the absence of compounds and <2 ng/mL)

SMILES: Cl.N[C@H]1CS(=O)(=O)c2cc(F)c(C(=O)NOc3ccccc3)cc2N(Cc2ccc(Cl)cc2)C1=O [Example 76, (3R)-3-amino-5-[(4-chlorophenyl)methyl]-8-fluoro-1,1,4-trioxo-N-phenoxy-2,3,4,5-tetrahydro-1λ^6,5-benzothiazepine-7-carboxamide hydrochloride]
- Activity Class CD4+ [2]: C (IL-2 production at 3 μM compound concentration between 2-fold increase as compared to mean IL-2 production of stimulated cells in the absence of compounds and <2 ng/mL)

SMILES: CC(C)CONC(=O)c1ccc2c(c1)N(Cc1ccc(Cl)cc1)C(=O)[C@@H](N)CS2(=O)=O.Cl [Example 81, (3R)-3-amino-5-[(4-chlorophenyl)methyl]-N-(2-methylpropoxy)-1,1,4-trioxo-2,3,4,5-tetrahydro-1λ^6,5-benzothiazepine-7-carboxamide hydrochloride]
- Activity Class CD4+ [2]: C (IL-2 production at 3 μM compound concentration between 2-fold increase as compared to mean IL-2 production of stimulated cells in the absence of compounds and <2 ng/mL)

SMILES: CCCONC(=O)c1ccc2c(c1)N(Cc1ccc(Cl)cc1)C(=O)[C@@H](N)CS2(=O)=O.Cl [Example 82, (3R)-3-amino-5-[(4-chlorophenyl)methyl]-1,1,4-trioxo-N-propoxy-2,3,4,5-tetrahydro-1λ^6,5-benzothiazepine-7-carboxamide hydrochloride]
- Activity Class CD4+ [2]: C (IL-2 production at 3 μM compound concentration between 2-fold increase as compared to mean IL-2 production of stimulated cells in the absence of compounds and <2 ng/mL)

SMILES: Cl.N[C@H]1CS(=O)(=O)c2ccc(C(=O)NOC3CCCCC3)cc2N(Cc2ccc(Cl)cc2)C1=O [Example 90, (3R)-3-amino-5-[(4-chlorophenyl)methyl]-N-(cyclohexyloxy)-1,1,4-trioxo-2,3,4,5-tetrahydro-1λ^6,5-benzothiazepine-7-carboxamide hydrochloride]
- Activity Class CD4+ [2]: A (IL-2 production at 3 μM compound concentration >10 ng/mL)

SMILES: Cl.N[C@H]1CS(=O)(=O)c2ccc(C(=O)NOCC3CCCCC3)cc2N(Cc2ccc(Cl)cc2)C1=O [Example 91, (3R)-3-amino-5-[(4-chlorophenyl)methyl]-N-(cyclohexylmethoxy)-1,1,4-trioxo-2,3,4,5-tetrahydro-1λ^6,5-benzothiazepine-7-carboxamide hydrochloride]
- Activity Class CD4+ [2]: B (IL-2 production at 3 μM compound concentration between 2-10 ng/mL)

SMILES: CC(C)(C)ONC(=O)c1ccc2c(c1)N(Cc1ccc(Cl)cc1)C(=O)[C@@H](N)CS2(=O)=O.Cl [Example 97, (3R)-3-amino-N-(tert-butoxy)-5-[(4-chlorophenyl)methyl]-1,1,4-trioxo-2,3,4,5-tetrahydro-1λ^6,5-benzothiazepine-7-carboxamide hydrochloride]
- Activity Class CD4+ [2]: C (IL-2 production at 3 μM compound concentration between 2-fold increase as compared to mean IL-2 production of stimulated cells in the absence of compounds and <2 ng/mL)

SMILES: CCCCNC(=O)c1cc2c(cc1F)SC[C@H](N)C(=O)N2Cc1ccc2ccccc2n1.Cl.Cl [Example 112, (3R)-3-amino-N-butyl-8-fluoro-4-oxo-5-(quinolin-2-ylmethyl)-2,3,4,5-tetrahydro-1,5-benzothiazepine-7-carboxamide dihydrochloride]
- Activity Class CD4+ [2]: C (IL-2 production at 3 μM compound concentration between 2-fold increase as compared to mean IL-2 production of stimulated cells in the absence of compounds and <2 ng/mL)

SMILES: COc1ccc(CNC(=O)c2cc3c(cc2F)SC[C@H](NCCCCCNC(=O)OC(C)(C)C)C(=O)N3Cc2ccc(Cl)cc2)cc1 [Example 115, tert-butyl N-(5-{[(3R)-5-[(4-chlorophenyl)methyl]-8-fluoro-7-{[(4-methoxyphenyl)methyl]carbamoyl}-4-oxo-2,3,4,5-tetrahydro-1,5-benzothiazepin-3-yl]amino}pentyl)carbamate]
- Activity Class CD4+ [2]: C (IL-2 production at 3 μM compound concentration between 2-fold increase as compared to mean IL-2 production of stimulated cells in the absence of compounds and <2 ng/mL)
